The test can be described thus: Immunogenic activity of further glycolipids conjugated to PS4. The conditions noted are these: glycolipid conjugated to PS4.

“(2S,3S,4R)-1-(6-(Carbonyl-1-ethyl-2-(tri(1-ethanoyl)1-ethanoyl-2-amino)-α-D-galactopyranosyl)-2-hexacosanoylaminooctadecane-3,4-diol [Compound 27a]”: the immunogenic activity result is “showed immunogenic activity”.

The record behind these values is US10588962B2, “Carbohydrate-glycolipid conjugate vaccines” (Max-Planck-Gesellschaft zur Förderung der Wissenschaften …, priority 2012, dated 2020).
